Assay in all cases: Kd select analysis (DiscoverX)
Common to all, as to assay type: binding

In one experiment the target is T1, GAK (Homo sapiens, UniProt O14976).
T1 construct: T7 phage fusion (kinase-tagged phage); purchased DiscoverX; host or cells: BL21-derived E. coli (T7 phage)
T1 sequence (O14976 1-1311): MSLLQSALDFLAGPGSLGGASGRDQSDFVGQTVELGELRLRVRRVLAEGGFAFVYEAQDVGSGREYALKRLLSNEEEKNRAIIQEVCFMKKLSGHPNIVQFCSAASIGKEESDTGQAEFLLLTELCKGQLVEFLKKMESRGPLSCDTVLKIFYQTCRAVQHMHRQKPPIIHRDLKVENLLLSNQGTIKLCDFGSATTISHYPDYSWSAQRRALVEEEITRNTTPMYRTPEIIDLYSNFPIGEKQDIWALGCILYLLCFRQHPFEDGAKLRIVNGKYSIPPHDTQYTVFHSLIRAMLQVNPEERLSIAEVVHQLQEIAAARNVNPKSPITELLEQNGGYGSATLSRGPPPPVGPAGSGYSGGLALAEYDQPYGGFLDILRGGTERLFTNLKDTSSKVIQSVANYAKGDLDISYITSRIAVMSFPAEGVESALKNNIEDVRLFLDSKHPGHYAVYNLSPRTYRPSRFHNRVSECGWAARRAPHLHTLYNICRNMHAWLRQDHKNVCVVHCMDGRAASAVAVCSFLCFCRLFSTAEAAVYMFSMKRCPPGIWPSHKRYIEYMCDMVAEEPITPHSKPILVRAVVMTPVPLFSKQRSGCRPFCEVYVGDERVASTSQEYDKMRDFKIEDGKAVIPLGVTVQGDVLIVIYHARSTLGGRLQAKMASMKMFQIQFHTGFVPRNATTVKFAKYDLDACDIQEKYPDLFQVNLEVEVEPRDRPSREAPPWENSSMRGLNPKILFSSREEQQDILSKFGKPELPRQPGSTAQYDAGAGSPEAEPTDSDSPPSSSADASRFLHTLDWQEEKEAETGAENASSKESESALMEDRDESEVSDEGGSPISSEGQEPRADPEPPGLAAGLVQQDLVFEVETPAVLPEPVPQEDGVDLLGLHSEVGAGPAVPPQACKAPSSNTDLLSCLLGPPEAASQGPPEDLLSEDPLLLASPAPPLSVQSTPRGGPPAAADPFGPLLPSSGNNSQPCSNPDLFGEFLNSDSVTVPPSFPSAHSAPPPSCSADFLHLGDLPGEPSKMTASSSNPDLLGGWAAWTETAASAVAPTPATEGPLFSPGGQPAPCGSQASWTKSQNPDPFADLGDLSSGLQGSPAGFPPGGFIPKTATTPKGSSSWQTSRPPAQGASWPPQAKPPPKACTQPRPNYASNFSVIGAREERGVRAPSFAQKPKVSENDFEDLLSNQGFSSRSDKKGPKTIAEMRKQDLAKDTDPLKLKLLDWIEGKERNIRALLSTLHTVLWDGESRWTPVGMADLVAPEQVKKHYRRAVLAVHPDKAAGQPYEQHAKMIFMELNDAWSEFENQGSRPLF
The protocol:
(§1) Hits are identified by an ultra-sensitive quantitative PCR detecting the specific DNA tag linked to each kinase (Supplementary Figure S2). The drug is used at a concentration of 10 µM and results are expressed as the percentage of signal (kinase PCR detection) with respect to DMSO control conditions. Thirteen hits were identified, with a signal reduction ranging from 0 to 27% (Table 3). Full raw data are presented in Supplementary Table S4. Interactions between 0 and 20% of reduction were considered to be the most significant ones. […] A sub-micromolar affinity (Kd<1 µM) was only seen with two PIKs (PIP4K2C, PI4KB) and GAK (Table 4). Inhibitions curves from these compounds are shown in Supplementary Figure S3.

The target in the next experiment is T2, PI4KB (Homo sapiens, UniProt Q9UBF8).
T2 construct: T7 phage fusion (kinase-tagged phage); purchased DiscoverX; host or cells: BL21-derived E. coli (T7 phage)
T2 sequence (Q9UBF8 whole entry, the tested form may be a part): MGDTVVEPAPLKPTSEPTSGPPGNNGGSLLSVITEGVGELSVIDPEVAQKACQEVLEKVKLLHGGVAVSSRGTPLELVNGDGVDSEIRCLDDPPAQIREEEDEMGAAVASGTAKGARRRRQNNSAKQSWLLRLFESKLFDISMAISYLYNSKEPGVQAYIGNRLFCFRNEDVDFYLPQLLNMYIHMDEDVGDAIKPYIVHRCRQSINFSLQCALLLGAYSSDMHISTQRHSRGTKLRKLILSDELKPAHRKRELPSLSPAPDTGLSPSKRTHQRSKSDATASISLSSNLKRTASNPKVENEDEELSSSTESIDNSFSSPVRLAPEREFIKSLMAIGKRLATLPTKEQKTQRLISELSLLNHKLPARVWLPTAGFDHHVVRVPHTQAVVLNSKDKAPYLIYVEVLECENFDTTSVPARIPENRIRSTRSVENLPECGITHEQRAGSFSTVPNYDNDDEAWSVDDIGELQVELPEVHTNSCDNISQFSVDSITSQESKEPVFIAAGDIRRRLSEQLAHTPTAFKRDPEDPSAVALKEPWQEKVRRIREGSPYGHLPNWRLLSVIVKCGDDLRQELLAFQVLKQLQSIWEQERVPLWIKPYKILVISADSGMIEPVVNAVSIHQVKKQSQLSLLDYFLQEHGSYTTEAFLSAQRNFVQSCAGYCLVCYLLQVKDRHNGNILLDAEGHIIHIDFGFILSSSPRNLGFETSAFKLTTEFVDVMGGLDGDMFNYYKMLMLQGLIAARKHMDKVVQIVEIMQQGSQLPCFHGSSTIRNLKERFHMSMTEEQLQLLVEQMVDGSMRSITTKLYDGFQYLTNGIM
On the procedure: as §1

Another experiment has as its target T3, DYRK2 (Homo sapiens, UniProt Q92630).
T3 construct: purchased DiscoverX (KINOMEscan)
T3 sequence (Q92630 1-601): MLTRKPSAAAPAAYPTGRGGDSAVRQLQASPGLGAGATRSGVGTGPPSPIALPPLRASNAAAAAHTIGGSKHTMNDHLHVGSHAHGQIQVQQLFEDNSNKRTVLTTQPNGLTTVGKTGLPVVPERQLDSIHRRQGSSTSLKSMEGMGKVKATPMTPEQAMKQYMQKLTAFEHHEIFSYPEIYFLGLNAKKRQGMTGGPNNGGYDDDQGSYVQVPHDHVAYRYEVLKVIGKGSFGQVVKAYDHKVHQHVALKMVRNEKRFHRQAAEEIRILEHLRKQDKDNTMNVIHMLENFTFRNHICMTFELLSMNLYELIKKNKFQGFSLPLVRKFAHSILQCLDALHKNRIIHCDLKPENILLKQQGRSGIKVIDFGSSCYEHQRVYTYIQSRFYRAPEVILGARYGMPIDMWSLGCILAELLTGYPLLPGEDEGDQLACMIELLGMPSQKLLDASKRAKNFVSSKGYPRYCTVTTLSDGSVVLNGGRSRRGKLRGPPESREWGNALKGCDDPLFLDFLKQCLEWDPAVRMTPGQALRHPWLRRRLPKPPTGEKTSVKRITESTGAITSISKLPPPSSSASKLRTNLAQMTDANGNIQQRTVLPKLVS
On the procedure:
as §1

The target in the next experiment is T4, PIP4K2C (Homo sapiens, UniProt Q8TBX8).
T4 construct: T7 phage fusion (kinase-tagged phage); purchased DiscoverX; host or cells: BL21-derived E. coli (T7 phage)
T4 sequence (Q8TBX8 whole entry, the tested form may be a part): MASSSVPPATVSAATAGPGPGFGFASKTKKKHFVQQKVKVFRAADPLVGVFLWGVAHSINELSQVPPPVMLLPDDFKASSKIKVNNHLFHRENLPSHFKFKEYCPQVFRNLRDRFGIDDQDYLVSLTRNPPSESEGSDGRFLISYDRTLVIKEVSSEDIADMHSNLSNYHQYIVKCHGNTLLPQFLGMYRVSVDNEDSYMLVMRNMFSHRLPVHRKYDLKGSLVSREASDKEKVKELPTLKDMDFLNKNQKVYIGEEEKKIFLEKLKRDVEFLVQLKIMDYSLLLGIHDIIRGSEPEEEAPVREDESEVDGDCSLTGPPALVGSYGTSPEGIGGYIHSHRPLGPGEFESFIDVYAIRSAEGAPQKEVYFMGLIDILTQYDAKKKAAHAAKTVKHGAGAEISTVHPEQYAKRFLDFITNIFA
The protocol:
as §1

Where [1] appears, read: sub-micromolar affinity, read-out: Kd.

Molecules are shown by their SMILES. Like-named read-outs stand apart in the source and are kept apart here.

Take `Nc1ccc(N=Nc2ccccc2)c(N)n1` [phenazopyridine, 2,6-diamino-3-(phenylazo)pyridine]: the Kd (as a rule, the equilibrium constant for the complex coming apart) is 760 nM at GAK (Phenazopyridine Kd (nM)); less than 1000 nM on GAK (setting [1]); 730 nM on PI4KB (Phenazopyridine Kd (nM)); less than 1000 nM at PI4KB (setting [1]); 5 µM on DYRK2; 540 nM at PIP4K2C (Phenazopyridine Kd (nM)). The Kd at PIP4K2C (setting [1]) is less than 1000 nM.

For the origin of these results see PMC8371461 (Frontiers in Pharmacology, 2021).
